Test results from article PMC7248880, “Preclinical Incorporation Dosimetry of [^18F]FACH—A Novel ^18F-Labeled MCT1/MCT4 Lactate Transporter Inhibitor for Imaging Cancer Metabolism with PET” (Molecules, 2020).

Experiment: Preclinical incorporation dosimetry: whole-body PET/CT in piglets, scaled to human, OLINDA 2.1, ICRP103
Type: in vivo, juvenile pigs
Description: Three piglets (age: ~6 weeks, weight: ~13–15 kg) were fasted on the day of imaging and received an intranuscular. injection of 1 mL azaperone and 4 mL ketamine to introduce anesthesia. […] During narcosis, the animals maintained spontaneous respiration and no mandatory ventilation was applied. The subjects were sequentially imaged after an iv injection (contralateral ear vein) of 156 ± 54 MBq [^18F]FACH (0.63 ± 0.49 µg) in a PET/CT system (Biograph16, SIEMENS, Erlangen, Germany). The piglets were positioned prone with legs alongside the body on a custom-made plastic trough including a piglet head-holder (Figure 5). The PET acquisition was divided into a sequential (4 × 9 min, 3 × 12 min) and a static part (1 × 24 min, 1 × 30 min, 1 × 36 min), each of which was preceded by a low-dose CT to acquire structural data for attenuation correction (AC) and anatomical orientation (Figure 6). Post mortem, the urine was collected by bladder punctuation, weighted, and divided into three 1 mL samples for activity measurements in a gamma-counter (Packard Cobra II 5003 Auto Gamma Counting System, GMI, Ramsey, MN, USA).
PET data reconstruction was done using low-dose CT attenuation correction (AC) and an iterative OSEM algorithm with 4 iterations and 8 subsets. As the PET/CT system is in daily clinical use, it is periodically subjected to detector normalization and activity calibration. Furthermore, all peripheral activity-measuring devices to be used for the investigation (dose calibrator, gamma counter) are cross-calibrated in terms of timing and a radioactivity adjustment.
The image data were analyzed with ROVER (ABX, Radeberg, Germany; v. 3.0.46h). The organs were identified and manually delineated using 3D volumes of interest (VOI). The CT data were used for anatomical orientation and for image registration with the PET data. Relevant source organs like brain, gall bladder, large intestine, small intestine, stomach, heart, kidneys, liver, lungs, pancreas, red marrow (backbone, pelvis, sternum), spleen, thyroid, testes, skeleton (bone), and the urinary bladder were delineated and the time–activity data transformed into percentage of injected dose (%IDorgan) with Equation (2). (2) %IDorgant=Aorgant×cscant/A0t [%] where Aorgant is the activity in the organ at the time t; cscant is a calibration factor representing the theoretical body activity (derived from a whole body mask of a volume that equals the body dimentions of the animal) decay corrected to t and divided by the imaged body activity in each image frame at the time t, and A0t is the injected activity decay corrected to t0.
The dose calculation has been described by our group in detail before. Briefly, due to differences in weight, size, and metabolic rates between the animal species and the human volunteers, it is necessary to map the preclinical extracted biodistribution data to human circumstances. Thus, the animal biokinetic data (time scale and %ID values) were adapted to the human circumstances according to [22] to fit the human weight, size, and metabolic rates (Equations (3) and (4)). (3) thuman=tanimal[mhuman/manimal]^0.25 (4) [%ID]/organhuman=[%ID]/ganimal×mTBanimal[g]/mTBhuman[g]×morganhuman[g]
The TIACs were estimated by exponential fitting and the dosimetry estimation was performed using OLINDA/EXM software (v. 2.1). Finally, organ doses (OD) were estimated and multiplied by tissue weighting factors as published in ICRP103 [20].

[1] = mean of three piglets, ICRP103 wT
[2] = mean of three piglets, adult male model
[3] = mean ± SD, three piglets, ICRP103 wT

Question: What does the source list for CCCN(CCC[18F])c1ccc(/C=C(\C#N)C(=O)O)c(OC)c1 [[^18F]FACH, (E)-2-cyano-3-{4-[(3-[^18F]fluoropropyl)(propyl)amino]-2-methoxyphenyl}acrylic acid]?
Answer: ED Contr., Lungs [1]: 9.46 × 10^−4 mSv/MBq; ED Contr., Osteogenic Cells [1]: 2.12 × 10^−4 mSv/MBq; ED Contr., Pancreas [1]: 2.81 × 10^−4 mSv/MBq; ED Contr., Prostate [1]: 6.01 × 10^−5 mSv/MBq; ED Contr., Rectum [1]: 3.18 × 10^−4 mSv/MBq; ED Contr., Red Marrow [1]: 1.67 × 10^−3 mSv/MBq; ED Contr., Right Colon [1]: 1.16 × 10^−3 mSv/MBq; ED Contr., Salivary Glands [1]: 7.90 × 10^−5 mSv/MBq; ED Contr., Small Intestine [1]: 1.71 × 10^−4 mSv/MBq; ED Contr., Spleen [1]: 8.37 × 10^−5 mSv/MBq; ED Contr., Stomach Wall [1]: 1.31 × 10^−3 mSv/MBq; ED Contr., Testes [1]: 3.38 × 10^−4 mSv/MBq; ED Contr., Thymus [1]: 7.69 × 10^−5 mSv/MBq; ED Contr., Thyroid [1]: 2.83 × 10^−4 mSv/MBq; ED Contr., Total Body [1]: 0.00 mSv/MBq; ED Contr., Urinary Bladder Wall [1]: 2.50 × 10^−3 mSv/MBq; OD, Adrenals [2]: 1.42 × 10^−2 mSv/MBq; OD, Brain [2]: 4.69 × 10^−3 mSv/MBq; OD, Esophagus [2]: 9.03 × 10^−3 mSv/MBq; OD, Eyes [2]: 6.91 × 10^−3 mSv/MBq; OD, Gall Bladder Wall [2]: 5.04 × 10^−2 mSv/MBq; OD, Heart Wall [2]: 9.46× 10^−3 mSv/MBq; OD, Kidneys [2]: 2.62 × 10^−2 mSv/MBq; OD, Left Colon [2]: 1.37 × 10^−2 mSv/MBq; OD, Liver [2]: 2.33 × 10^−2 mSv/MBq; OD, Lungs [2]: 7.88 × 10^−3 mSv/MBq; OD, Osteogenic Cells [2]: 2.12 × 10^−2 mSv/MBq; OD, Pancreas [2]: 3.05 × 10^−2 mSv/MBq; OD, Prostate [2]: 1.30 × 10^−2 mSv/MBq; OD, Rectum [2]: 1.38 × 10^−2 mSv/MBq; OD, Red Marrow [2]: 1.39 × 10^−2 mSv/MBq; OD, Right Colon [2]: 2.40 × 10^−2 mSv/MBq; OD, Salivary Glands [2]: 7.90 × 10^−3 mSv/MBq; OD, Small Intestine [2]: 1.84 × 10^−2 mSv/MBq; OD, Spleen [2]: 9.08 × 10^−3 mSv/MBq; OD, Stomach Wall [2]: 1.09 × 10^−2 mSv/MBq; OD, Testes [2]: 8.45 × 10^−3 mSv/MBq; OD, Thymus [2]: 8.33 × 10^−3 mSv/MBq; OD, Thyroid [2]: 7.08 × 10^−3 mSv/MBq; OD, Total Body [2]: 9.76 × 10^−3 mSv/MBq; OD, Urinary Bladder Wall [2]: 6.26 × 10^−2 mSv/MBq; organ dose, gall bladder (mean ± SD, three piglets): 50.4 ± 37.5 µSv/MBq; organ dose, kidneys (mean ± SD, three piglets): 26.2 ± 2.2 µSv/MBq; organ dose, liver (mean ± SD, three piglets): 23.3 ± 13.6 µSv/MBq; organ dose, pancreas (mean ± SD, three piglets): 30.5 ± 27.3 µSv/MBq; organ dose, right colon (mean ± SD, three piglets): 24.0 ± 7.4 µSv/MBq; organ dose, urinary bladder (mean ± SD, three piglets): 62.6 ± 28.9 µSv/MBq; contribution to the ED, lungs [3]: 0.9 ± 0.05 µSv/MBq; contribution to the ED, red marrow [3]: 1.7 ± 0.3 µSv/MBq; contribution to the ED, right colon [3]: 1.2 ± 0.4 µSv/MBq; contribution to the ED, stomach [3]: 1.3 ± 0.4 µSv/MBq; contribution to the ED, urinary bladder [3]: 2.5 ± 1.1 µSv/MBq; ED to humans, preclinical (piglet biokinetic data, ICRP103 wT): 12.4 µSv/MBq; ED to humans, corrected (~300 MBq iv, corrected for up to 40% underestimation): about 6.2 mSv
